# Laboratory results taken from publication PMC4499255, “Monitoring Conformational Changes in the NDM-1 Metallo-β-lactamase by ^19F NMR Spectroscopy” (Angewandte Chemie (International Ed. in English), 2014).
# Where two headings read alike, the source gives them in different places.
# Tests used:
# [1] = molecular target: NDM-1* (BFA-labeled M67C NDM-1) (Klebsiella pneumoniae, UniProt C7C422, M67C); format: biochemical; settings: labeled NDM-1*; for Km: substrate affinity
# Description: (§1) buffer was prepared freshly prior to the reaction.
# Kinetic and inhibition analyses were performed as described1. K measurements were performed
# (§2) nM NDM-1* for nitrocefin measurements. […]
# NDM-1 [2] = molecular target: T1, NDM-1 (Klebsiella pneumoniae, UniProt C7C422); settings: unlabeled NDM-1; cited from earlier work
# T1 sequence (C7C422 37-270 limits assumed): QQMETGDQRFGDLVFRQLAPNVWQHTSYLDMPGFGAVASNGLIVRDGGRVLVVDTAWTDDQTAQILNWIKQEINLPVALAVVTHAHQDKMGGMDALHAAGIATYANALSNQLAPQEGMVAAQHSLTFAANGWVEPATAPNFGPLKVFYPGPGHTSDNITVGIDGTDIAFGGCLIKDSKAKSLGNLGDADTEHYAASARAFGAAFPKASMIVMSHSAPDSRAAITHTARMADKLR
# [3] = molecular target: di-ZnII-NDM-1* (BFA-labeled M67C NDM-1) (Klebsiella pneumoniae, UniProt C7C422, M67C); assay: 19F NMR ligand titration / binding assay
# Sequence of di-ZnII-NDM-1* (BFA-labeled M67C NDM-1) (C7C422 37-270 M67C): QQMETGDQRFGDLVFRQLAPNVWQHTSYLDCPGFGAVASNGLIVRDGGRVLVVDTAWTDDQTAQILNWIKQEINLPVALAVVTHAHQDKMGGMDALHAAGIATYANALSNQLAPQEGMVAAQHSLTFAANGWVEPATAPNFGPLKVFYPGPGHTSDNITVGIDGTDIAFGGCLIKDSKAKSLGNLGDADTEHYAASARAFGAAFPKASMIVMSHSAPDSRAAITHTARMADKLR
# Description: To calculate the molar fraction of protein–ligand complex, Equation (1) was used: [drawing 1] (1) where [P0] is the total protein concentration and [L0] is the total ligand concentration titrated into solution. […]
# as §1
# Kinetic and inhibition analyses were performed as described1. K measurements were performed […]
# as §2
# with rf field of 3.125 kHz.
# 768 scans and a recovery delay of 1s. Data were processed with 3 Hz Lorentzian line broadening […]
# Trifluoroacetic acid (TFA, 50 µM) […]
# was used as an internal standard. All inhibitor incubations were compared to appropriate NDM-1* […]
# A DMSO titration curve was used for reference
# Metal binding experiments
# NDM-1 [4] = molecular target: T1, NDM-1
# [5] = system: C[C@@H](O)[C@H]1C(=O)N2C(C(=O)O)=C(S[C@@H]3CN[C@H](C(=O)N(C)C)C3)[C@H](C)[C@H]12; assay: purified protein, by the assay type; settings: other: unlabeled NDM-1; substrate affinity; 25.0 °C
# Description: We then investigated the kinetic properties of NDM-1* compared to unlabeled NDM-1.
# using 0.5 nM NDM-1 and 1 nM NDM-1* for meropenem measurements and 0.25 nM NDM-1 and 2
# Sequence of NDM-1* (BFA-labeled M67C NDM-1) (C7C422 37-270 M67C): as above
molecule,measurement,setting,value
C[C@@H](O)[C@H]1C(=O)N2C(C(=O)O)=C(S[C@@H]3CN[C@H](C(=O)N(C)C)C3)[C@H](C)[C@H]12 [Meropenem],kcat,[1],67.8 ± 4.3 s⁻¹
same,Km,[1],54.8 ± 9.4 µM
O=C(Cc1cccs1)N[C@@H]1C(=O)N2C(C(=O)O)=C(/C=C/c3ccc([N+](=O)[O-])cc3[N+](=O)[O-])CS[C@H]12 [Nitrocefin],kcat,[1],22.9 ± 0.6 s⁻¹
same,Km,[1],6.2 ± 0.7 µM
same,kcat,NDM-1 [2],25.3±1.6^[a] s^−1
C[C@H]1[C@H](NC(=O)/C(=N\OC(C)(C)C(=O)O)c2csc(N)n2)C(=O)N1S(=O)(=O)O [aztreonam],19F chemical shift change upon addition of ligand (binding),[3]; ligand 2.5 mM,no ^19F chemical shift change was observed
same,reported inhibition of NDM-1,NDM-1 [4]; ref 9b; cited from earlier work,not to inhibit NDM-1
"O=C(N[C@@H](Cc1c[nH]c2ccccc12)C(=O)O)c1nc(Cl)c2ccccc2c1O [compound 3, (S)-2-(1-chloro-4-hydroxyisoquinoline-3-carboxamido)-3-(1H-indol-3-yl)propanoic acid]",Kd,[3],131 µM
same,IC50,NDM-1 [4]; read-out: reported IC50; NDM-1; cited from earlier work,61 µM
"O=C(N[C@H](Cc1c[nH]c2ccccc12)C(=O)O)c1nc(Cl)c2ccccc2c1O [compound 4, (R)-2-(1-chloro-4-hydroxyisoquinoline-3-carboxamido)-3-(1H-indol-3-yl)propanoic acid]",IC50,NDM-1 [4]; NDM-1; read-out: reported IC50; cited from earlier work,47 µM
NDM-1 (Klebsiella pneumoniae),Km,[5],76.6 ± 4.4 µM
same,kcat,[5],235 ± 5.6 s⁻¹
